Experimental data from patent US20250152623A1, “Compositions and kits for use in wound healing, tissue regeneration and/or bone regeneration” (priority 2022, published 2025).
Read-outs that look alike come from different tables or passages of the source.

Experiments:
[1] = tested on: human primary fibroblasts obtained from human oral mucosa; format: cell-based; settings: 0.256 mg/mL calcium peroxide as single substance; cytotoxicity = more than 30% reduction (ISO 10993-5); FIG. 1
Experimental: (§1) To investigate the cytotoxicity of calcium peroxide, hyaluronic acid, and a combination thereof on cells, the substances were given to human primary fibroblasts, osteoblasts, and human umbilical vein endothelial cells (HUVEC) in vitro and compared to untreated cells and a dead control. For this purpose, cytotoxicity tests were performed according to ISO 10993-5 by measuring the cell viability quantitatively and […]. Additionally, biocompatibility tests were performed in the chorioallantoic membrane assay (CAM assay) in fertilized hen's eggs. All tests were repeated at least three times independently. In all tests 30 mg/mL hyaluronic acid and 0.256 mg/mL CaO2 were used. According to ISO 10993-5, cytotoxicity is defined by more than 30% reduction of the viable cell number by the substance.
Fibroblasts were obtained from human oral mucosa. Tissue samples were cut into small pieces of approximately 2×2 mm with a sterile disposable scalpel. […]
Cells were seeded into a 24-well-plate and they were given time to adhere overnight. […] Fluorescence was measured on a Fluorescence Microplate Reader (Fluoroskan Ascent Microplate reader, ThermoFisher Scientific, Waltham, MA, USA). Results were given as relative fluorescence using a 538 nm excitation filter and a 600 nm emission filter, normalized to untreated control.

[2] = tested on: human primary osteoblasts; format: cell-based; settings: 30 mg/mL hyaluronic acid, 0.256 mg/mL CaO2; FIG. 2
Experimental: as §1
Primary human osteoblasts were isolated according to the following protocol. Human bone specimens were obtained during hip or knee joint replacement surgeries. […]
Cells were seeded into a 24-well-plate and they were given time to adhere overnight. […] Fluorescence was measured on a Fluorescence Microplate Reader (Fluoroskan Ascent Microplate reader, ThermoFisher Scientific, Waltham, MA, USA). […]

[3] = tested on: chorioallantoic membrane (CAM); format: in vivo
Experimental: as §1
Fertilized white Leghorn chicken eggs (LSL Rhein-Main GmbH, Dieburg, Germany) were incubated at 38° C. with constant humidity of 55 rH in an incubator (Type 3000 digital and fully automatic, Siepmann GmbH, Herdecke, Germany). For the first three days, eggs were placed horizontally on one side to ensure that the CAM would detach from the upwards pointing eggshell. On the embryonic development day (EDD) 3, eggs were prepared by removing 5-6 mL of the albumen in order to enlarge the space between eggshell and CAM. A small window of 3×2 cm was cut into the upwards pointing part of the eggshell. The window was covered with Parafilm® (Sigma-Aldrich, St. Louis, MO, USA) to prevent evaporation. On EDD-8, Gelaspon Strips (Bausch & Lomb Inc.; New York, USA) were cut in slices of 1×0.5×2 mm. 20 μl of each substance (512 mg/L CaO2, 10 mg/mL sodium hyaluronate, combination thereof) were added to the sponge. 20 μl of water was used as control. The further assessment of potential tissue adverse events was performed blinded. After 3 h, on EDD-10, and EDD-12, pictures were taken with a digital intravital fluorescence microscope (Olympus BXFM, Olympus Deutschland GmbH, Hamburg, Germany) at a 100-fold magnification using the cellSens Dimension software package.

[4] = tested on: planktonic Streptococcus oralis ATCC 9811; assay: Planktonic bacterial growth and metabolic activity of S. oralis; format: cell-based; settings: for optical density at 600 nm (growth) compared to the control: 24 h anaerobic, FIG. 5 upper left
Experimental: According to FIG. 5, different concentrations of calcium peroxide were applied to mature biofilms in combination with hyaluronic acid. Calcium peroxide was added to planktonic bacterial strains S. oralis and P. gingivalis in concentrations ranging from 0 mg/L (control) to 500 mg/L with hyaluronic acid being present in a concentration of 11.550 mg/L. Shown in each case are the optical density at 600 nm, a parameter for the growth of a bacterial culture, and the relative metabolic activity. […] The autoclaved calcium peroxide (CaO2) (Sigma Aldrich, St. Louis, MO, US), ZnO2 and/or MgO2 was dissolved in sterile filtered, deionized, and autoclaved water. By serial dilutions with water (for planktonic experiments) or BHI/VitK (for biofilm experiments) the solutions were adjusted to concentration of 3.9-500 mg/l CaO2 for bacterial experiments. All solutions were freshly prepared for each experiment. Streptococcus oralis ATCC 9811 was obtained from the American Type Culture Collection (ATCC) and Porphyromonas gingivalis DSM 20709 derived from the German Collection of Microorganisms and Cell Cultures (DSMZ). The strains were grown under anaerobic conditions (80% N2, 10% H2, 10% CO2) at 37° C. for 24 h in 50 mL screw cap tube (Sarstedt, Nümbrecht, Germany) with Brain Heart Infusion Medium (BHI; Oxoid, Wesel, Germany) containing 10 μg/mL vitamin K (Roth, Karlsruhe, Germany; BHI/VitK) to obtain 24-hour-old precultures for further processing. In order to determine the influence of CaO2 on planktonic S. oralis and P. gingivalis, the 24-hour-old precultures were pelleted by centrifugation at 4,000 g for 15 min at 4° C., the supernatant was discarded and the bacterial pellets were resuspended in fresh double concentrated BHI/VitK medium (2×BH/VitK). The optical density was measured at 600 nm (OD600; BioPhotometer, Eppendorf, Hamburg, Germany), adjusted to 0.2 and dilute 1:10 with 2×BHI/VitK to 0.02. The freshly prepared CaO2 solution was mixed equally with the bacterial cultures (OD600=0.02) to a final OD600=0.01 and following final concentrations for CaO2: As positive controls, bacterial cultures (OD600=0.02) were mixed 1:2 with sterile filtered, deionized and autoclaved water (growth controls). […] To evaluate the effect of CaO2 on the growth of planktonic S. oralis and P. gingivalis cultures, the 24-h-old bacterial cultures were mixed and the optical density (OD600) was measured with a plate reader (Tecan, Mennedorf, Switzerland). Metabolic activity was measured using the BacTiter-Glo™ Microbial Viability Assay (Promega, Mannheim, Germany). […] After 5 min of incubation at room temperature under light protection, the samples were mixed again and the amount of adenosine triphosphate (ATP) was determined by measuring the luminescence using the plate reader. […]

[5] = tested on: planktonic Porphyromonas gingivalis DSM 20709; assay: Planktonic bacterial growth and metabolic activity of P. gingivalis; format: cell-based; settings: for relative metabolic activity compared to the control: FIG. 5 lower right; for optical density at 600 nm (growth) compared to the control: FIG. 5 top right
Experimental: According to FIG. 5, different concentrations of calcium peroxide were applied to mature biofilms in combination with hyaluronic acid. Calcium peroxide was added to planktonic bacterial strains S. oralis and P. gingivalis in concentrations ranging from 0 mg/L (control) to 500 mg/L with hyaluronic acid being present in a concentration of 11.550 mg/L. Shown in each case are the optical density at 600 nm, a parameter for the growth of a bacterial culture, and the relative metabolic activity. […] The autoclaved calcium peroxide (CaO2) (Sigma Aldrich, St. Louis, MO, US), ZnO2 and/or MgO2 was dissolved in sterile filtered, deionized, and autoclaved water. By serial dilutions with water (for planktonic experiments) or BHI/VitK (for biofilm experiments) the solutions were adjusted to concentration of 3.9-500 mg/l CaO2 for bacterial experiments. All solutions were freshly prepared for each experiment. Streptococcus oralis ATCC 9811 was obtained from the American Type Culture Collection (ATCC) and Porphyromonas gingivalis DSM 20709 derived from the German Collection of Microorganisms and Cell Cultures (DSMZ). The strains were grown under anaerobic conditions (80% N2, 10% H2, 10% CO2) at 37° C. for 24 h in 50 mL screw cap tube (Sarstedt, Nümbrecht, Germany) with Brain Heart Infusion Medium (BHI; Oxoid, Wesel, Germany) containing 10 μg/mL vitamin K (Roth, Karlsruhe, Germany; BHI/VitK) to obtain 24-hour-old precultures for further processing. In order to determine the influence of CaO2 on planktonic S. oralis and P. gingivalis, the 24-hour-old precultures were pelleted by centrifugation at 4,000 g for 15 min at 4° C., the supernatant was discarded and the bacterial pellets were resuspended in fresh double concentrated BHI/VitK medium (2×BH/VitK). The optical density was measured at 600 nm (OD600; BioPhotometer, Eppendorf, Hamburg, Germany), adjusted to 0.2 and dilute 1:10 with 2×BHI/VitK to 0.02. The freshly prepared CaO2 solution was mixed equally with the bacterial cultures (OD600=0.02) to a final OD600=0.01 and following final concentrations for CaO2: As positive controls, bacterial cultures (OD600=0.02) were mixed 1:2 with sterile filtered, deionized and autoclaved water (growth controls). As negative controls, 2×BHI/VitK was mixed equally with sterile filtered, deionized and autoclaved water (medium control) and the CaO2 solution was mixed 1:2 with 2×BHI/VitK (CaO2 solution control). Finally, 150 μL of each suspension was transferred into each well of a 96-well plate and cultivated for 24 h at 37° C. rotating (180 rpm) under anaerobic conditions (Anaerobic Jar and AnaeroGen; Oxoid, Wesel, Germany). All experiments were carried out in three biological and two technical replicates. To evaluate the effect of CaO2 on the growth of planktonic S. oralis and P. gingivalis cultures, the 24-h-old bacterial cultures were mixed and the optical density (OD600) was measured with a plate reader (Tecan, Mennedorf, Switzerland). Metabolic activity was measured using the BacTiter-Glo™ Microbial Viability Assay (Promega, Mannheim, Germany). 50 μL BacTiter-Glo™ reagent and 50 μL of the well-mixed bacterial cultures were added to opaque 96-well plates. After 5 min of incubation at room temperature under light protection, the samples were mixed again and the amount of adenosine triphosphate (ATP) was determined by measuring the luminescence using the plate reader. All results were normalized to the medium or CaO2 solution controls.

Row | Compound | reduction in cell viability [1] | viability after treatment in comparison to untreated osteoblasts (=100% cell viability) [2] | adverse tissue reactions on the CAM ([3]; FIG. 4) | angiogenesis (area of the sponge covered by blood vessels) compared to untreated CAM tissue ([3]; FIG. 4A) | cytotoxic effect on the CAM ([3]; substance applied on sponge, FIGS. 4A and 4B) | growth inhibition of S. oralis ([4]; calcium peroxide 125 mg/L) | optical density at 600 nm (growth) compared to the control ([4]; calcium peroxide 250 mg/L) | optical density at 600 nm (growth) compared to the control ([4]; calcium peroxide 500 mg/L) | relative metabolic activity compared to the control ([4]; calcium peroxide up to 500 mg/L, FIG. 5 lower left) | relative metabolic activity compared to the control ([5]; calcium peroxide 125 mg/L) | optical density at 600 nm (growth) compared to the control ([5]; calcium peroxide 125 mg/L) | relative metabolic activity compared to the control ([5]; calcium peroxide 250 mg/L) | optical density at 600 nm (growth) compared to the control ([5]; calcium peroxide 250 mg/L) | relative metabolic activity compared to the control ([5]; calcium peroxide 500 mg/L) | optical density at 600 nm (growth) compared to the control ([5]; calcium peroxide 500 mg/L) | adverse tissue reactions on the CAM ([3]; in vivo) | cytotoxic effect on the CAM ([3]; in vivo)
1 | [Ca+2].[O-][O-] [calcium peroxide] | more than 30% | hardly showed a reduction | no adverse tissue reactions | not significantly different | none of the tested substances had a cytotoxic effect | only very slightly inhibited | decreased significantly | decreased significantly | unchanged | significantly decreased | significantly decreased | significantly decreased | significantly decreased | significantly decreased | significantly decreased |  | 
2 | hyaluronic acid |  |  |  |  |  |  |  |  |  |  |  |  |  |  |  | no adverse tissue reactions | none of the tested substances had a cytotoxic effect
